Blank lines part the entries; values can stand above or below the compound they belong to.
How the values were obtained:
SIRT1 = biological target: T1, SIRT1 (Homo sapiens, UniProt Q96EB6); experiment: End-point SIRT1 deacetylation inhibition assay; assay type: biochemical
T1 sequence (Q96EB6 193-741): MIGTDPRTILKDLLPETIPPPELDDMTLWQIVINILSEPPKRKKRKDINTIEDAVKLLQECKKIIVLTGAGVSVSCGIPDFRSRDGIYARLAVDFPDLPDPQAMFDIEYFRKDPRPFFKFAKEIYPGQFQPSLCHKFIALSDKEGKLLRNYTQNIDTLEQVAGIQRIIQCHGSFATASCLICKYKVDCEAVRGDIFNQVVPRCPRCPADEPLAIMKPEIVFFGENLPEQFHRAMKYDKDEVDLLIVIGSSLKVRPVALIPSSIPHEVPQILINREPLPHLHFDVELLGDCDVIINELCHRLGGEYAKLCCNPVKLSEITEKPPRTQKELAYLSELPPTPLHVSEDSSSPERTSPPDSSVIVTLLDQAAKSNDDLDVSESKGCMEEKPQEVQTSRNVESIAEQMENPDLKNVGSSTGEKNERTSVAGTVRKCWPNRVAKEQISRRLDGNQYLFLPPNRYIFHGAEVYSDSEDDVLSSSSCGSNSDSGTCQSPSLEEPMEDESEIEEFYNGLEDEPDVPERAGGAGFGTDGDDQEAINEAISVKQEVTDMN

SIRT2 [1] = biological target: T2, SIRT2 (Homo sapiens, UniProt Q8IXJ6); experiment: biochemical; assay type: biochemical; conditions: for %inhibition SIRT2, QPKKac: 100 µM inhibitor, QPKKac 50 µM, NI = no inhibition
T2 sequence (Q8IXJ6 50-356): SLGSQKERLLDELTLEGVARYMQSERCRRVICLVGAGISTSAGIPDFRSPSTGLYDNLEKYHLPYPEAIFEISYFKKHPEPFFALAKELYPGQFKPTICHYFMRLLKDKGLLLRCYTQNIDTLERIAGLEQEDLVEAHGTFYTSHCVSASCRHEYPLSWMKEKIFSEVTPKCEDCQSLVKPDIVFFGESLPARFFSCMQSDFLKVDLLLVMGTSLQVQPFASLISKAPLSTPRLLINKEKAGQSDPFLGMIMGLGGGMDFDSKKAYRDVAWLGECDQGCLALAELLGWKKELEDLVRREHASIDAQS

SIRT3 = biological target: T3, SIRT3 (Homo sapiens, UniProt Q9NTG7); experiment: biochemical; assay type: biochemical
T3 sequence (Q9NTG7 102-399): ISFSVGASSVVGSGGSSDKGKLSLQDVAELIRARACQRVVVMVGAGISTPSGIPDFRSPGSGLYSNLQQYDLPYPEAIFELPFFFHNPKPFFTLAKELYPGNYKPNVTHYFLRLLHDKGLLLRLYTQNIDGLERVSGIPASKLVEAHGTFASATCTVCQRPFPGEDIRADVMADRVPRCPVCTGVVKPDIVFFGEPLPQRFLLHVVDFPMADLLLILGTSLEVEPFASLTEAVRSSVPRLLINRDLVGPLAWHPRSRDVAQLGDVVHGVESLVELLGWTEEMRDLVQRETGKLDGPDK

SIRT6 = SIRT6 (Homo sapiens, UniProt Q8N6T7); experiment: End-point SIRT6 inhibition assay; assay type: biochemical; conditions: 10 µM inhibitor; SIRT6 600 nM; ETDKmyr 50 µM as substrate; NI = no inhibition
SIRT2 [2] = biological target: T2, SIRT2; experiment: Continuous trypsin-coupled SIRT2 inhibition assay; assay type: biochemical; conditions: from dependence of kobs on inhibitor concentration
[3] = Serum stability in human male serum; assay type: in vitro ADME; conditions: 37 °C, up to 24 h
[4] = system: acetylated α-tubulin in MCF-7 cells; experiment: Immunofluorescence of acetylated α-tubulin in MCF-7 cells; assay type: cell-based, human; conditions: MCF-7, 6 h; 26 5 μM, 26-D 25 μM, TSA 5 μM

Chain of SIRT6 (Q8N6T7 whole entry): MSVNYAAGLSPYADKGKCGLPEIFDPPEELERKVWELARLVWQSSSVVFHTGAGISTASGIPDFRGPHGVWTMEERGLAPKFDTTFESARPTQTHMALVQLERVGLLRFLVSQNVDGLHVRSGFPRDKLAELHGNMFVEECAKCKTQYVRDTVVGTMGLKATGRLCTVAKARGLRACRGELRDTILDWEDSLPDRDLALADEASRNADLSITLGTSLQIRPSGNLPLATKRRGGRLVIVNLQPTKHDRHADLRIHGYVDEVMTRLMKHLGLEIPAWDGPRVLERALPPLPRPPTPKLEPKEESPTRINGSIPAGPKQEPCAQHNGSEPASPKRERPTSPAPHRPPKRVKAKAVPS

Compound: CCCCCCCCCCCCNC(=S)NCCCC[C@H](NS(C)(=O)=O)C(=O)N[C@@H](C)C(=O)N[C@@H](CCCNC(=N)N)C(N)=O [Compound 25]
IC50 (SIRT1): 370 ± 70 nM | IC50 (SIRT2 [1]; IC50 SIRT2, QPKKac, given as class word, QPKKac 50 μM, NAD+ 500 μM, SIRT2 100 nM): < 100 nM | IC50 (SIRT3): 1900 ± 300 nM | %-inhibition SIRT6 (SIRT6): did not inhibit | mechanism of slow-binding inhibition (SIRT2 [2]): mechanism B | degradation in human serum (in words) [3]: almost fully degraded in less than two hours

Compound: CC(/C=C/C(=O)NO)=C\[C@@H](C)C(=O)c1ccc(N(C)C)cc1 [TSA, Trichostatin A]
acetylated α-tubulin level by immunofluorescence (in words) [4]: hyperacetylation of α-tubulin throughout the entire cell

The next lines start with the values.

%inhibition SIRT3, QPKKac (SIRT3; 100 µM inhibitor, QPKKac 50 µM, NI = no inhibition): <50% [100 μM] | degradation in human serum (in words) [3]: rapidly degraded
Compound: CN(C)CCCCC(=O)Nc1ccc(NC(=S)NC(=O)c2ccc(C(C)(C)C)cc2)cc1 [Tenovin-6, reference compound]

%inhibition SIRT2, QPKKac (SIRT2 [1]): only limited inhibition
Compound: CCCCCCCCCCCCCC(=O)NNCCC[C@H](NC(=O)OCc1ccccc1)C(=O)N[C@@H](Cc1c[nH]c2ccccc12)C(=O)NC(C)C [Compound 4]

%inhibition SIRT2, QPKKac (SIRT2 [1]): only limited inhibition
Compound: CCCCCCCCCCCCNC(=O)CCCCC[C@H](NC(=O)OCc1ccccc1)C(=O)N[C@@H](Cc1c[nH]c2ccccc12)C(=O)NC(C)C [Compound 5]

From PMC8341974 (RSC Chemical Biology, 2021)
